The results in this text go back to paper PMC10747430, “^99mTc-Labeled Cyclic Peptide Targeting PD-L1 as a Novel Nuclear Imaging Probe” (Pharmaceutics, 2023).

The target in assay [1] is T1, human recombinant PD-L1 protein (Homo sapiens, UniProt Q9NZQ7).
T1 construct: purchased FineTest P6857
Nature of the assay: Radio-SDS-PAGE molecular recognition by PD-L1 protein. In kind it is binding. To be noted: radiopeptide (1 mg/mL) incubated with PD-L1 (200 µg/mL) 30 min at 37 °C; 15% SDS-PAGE, radio-TLC scan. As for the experimental part:
(§1) SDS-PAGE gel electrophoresis was performed. Radioactivity distribution was determined using a radio-TLC scanner (Mini-Gita, 60–150 keV, BGO-Crystal, window 25 × 2 mm, thickness 5 mm, resolution optimized for Tc-99m; RayTest, Munich, Germany) to detect [^99mTc]Tc-iPD-L1 and [^99mTc]Tc-WL12 binding to PD-L1 protein.
(§2) Briefly, ^99mTc-labeled WL12 and iPD-L1 solutions (100 µL) (1 mg/mL peptide) were incubated with human recombinant PD-L1 protein (100 µL) (200 µg/mL; FineTest; Cat: P6857) (radiopeptide-PD-L1 interaction) or human integrin αVβ3 protein (100 µL) (negative control; 200 µg/mL) (Chemicom, Merck; Burlington, MA, USA) (radiopeptide-integrin interaction) for 30 min at 37 °C, after which the samples were diluted with Laemmli sample buffer (containing 10% SDS, Tris-Cl 125 mM, pH = 6.8, 12.5% glycerol and 0.005% bromophenol blue after dye) to give final protein concentrations of 25 µg/mL. […] Finally, the radioactivity distribution on the gels was scanned using a radio-TLC detector to determine the percentage of [^99mTc]Tc-iPD-L1 or [^99mTc]Tc-WL12 radioactivity associated with proteins.
(§3) In vitro-specific recognition of [^99mTc]Tc-iPD-L1 and [^99mTc]Tc-WL12 by the PD-L1 protein was performed using a combination of radio-TLC and SDS-PAGE (radio-SDS-PAGE). […] Therefore, the radioactivity associated with free peptides is in the front of the gel plate (around 60–70 mm). […]

Assay [2] deals with T2, human integrin αVβ3 protein (Homo sapiens, UniProt P05106+P06756).
T2 construct: purchased Chemicom, Merck
T2 sequence (P06756 31-889 limits assumed): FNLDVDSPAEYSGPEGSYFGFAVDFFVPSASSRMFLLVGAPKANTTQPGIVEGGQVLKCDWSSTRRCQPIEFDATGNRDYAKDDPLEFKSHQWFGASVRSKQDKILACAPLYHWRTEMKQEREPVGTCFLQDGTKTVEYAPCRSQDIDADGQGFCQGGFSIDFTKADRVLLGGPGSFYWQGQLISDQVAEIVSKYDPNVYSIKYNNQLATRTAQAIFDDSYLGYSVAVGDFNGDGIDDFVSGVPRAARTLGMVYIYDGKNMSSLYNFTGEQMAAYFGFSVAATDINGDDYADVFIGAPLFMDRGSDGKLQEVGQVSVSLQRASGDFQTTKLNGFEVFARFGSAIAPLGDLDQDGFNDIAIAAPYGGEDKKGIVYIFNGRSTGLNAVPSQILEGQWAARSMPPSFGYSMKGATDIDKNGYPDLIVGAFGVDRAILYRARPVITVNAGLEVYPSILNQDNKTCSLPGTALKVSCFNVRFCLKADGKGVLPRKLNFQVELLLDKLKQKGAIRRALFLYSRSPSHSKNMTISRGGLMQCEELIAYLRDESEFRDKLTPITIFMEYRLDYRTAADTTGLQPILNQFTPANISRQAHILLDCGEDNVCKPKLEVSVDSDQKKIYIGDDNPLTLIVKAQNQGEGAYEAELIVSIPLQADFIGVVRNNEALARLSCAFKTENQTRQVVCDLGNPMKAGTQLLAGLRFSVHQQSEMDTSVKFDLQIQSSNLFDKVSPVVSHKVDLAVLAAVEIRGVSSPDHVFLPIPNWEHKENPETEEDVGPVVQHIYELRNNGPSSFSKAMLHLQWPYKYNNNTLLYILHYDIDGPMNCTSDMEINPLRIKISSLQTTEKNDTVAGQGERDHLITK
T2 sequence (P06756 891-1048 limits assumed): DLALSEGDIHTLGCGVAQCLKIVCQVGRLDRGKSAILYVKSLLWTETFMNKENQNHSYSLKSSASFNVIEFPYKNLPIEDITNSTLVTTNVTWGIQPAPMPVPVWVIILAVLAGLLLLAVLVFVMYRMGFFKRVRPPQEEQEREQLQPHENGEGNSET
T2 sequence (P05106 27-788): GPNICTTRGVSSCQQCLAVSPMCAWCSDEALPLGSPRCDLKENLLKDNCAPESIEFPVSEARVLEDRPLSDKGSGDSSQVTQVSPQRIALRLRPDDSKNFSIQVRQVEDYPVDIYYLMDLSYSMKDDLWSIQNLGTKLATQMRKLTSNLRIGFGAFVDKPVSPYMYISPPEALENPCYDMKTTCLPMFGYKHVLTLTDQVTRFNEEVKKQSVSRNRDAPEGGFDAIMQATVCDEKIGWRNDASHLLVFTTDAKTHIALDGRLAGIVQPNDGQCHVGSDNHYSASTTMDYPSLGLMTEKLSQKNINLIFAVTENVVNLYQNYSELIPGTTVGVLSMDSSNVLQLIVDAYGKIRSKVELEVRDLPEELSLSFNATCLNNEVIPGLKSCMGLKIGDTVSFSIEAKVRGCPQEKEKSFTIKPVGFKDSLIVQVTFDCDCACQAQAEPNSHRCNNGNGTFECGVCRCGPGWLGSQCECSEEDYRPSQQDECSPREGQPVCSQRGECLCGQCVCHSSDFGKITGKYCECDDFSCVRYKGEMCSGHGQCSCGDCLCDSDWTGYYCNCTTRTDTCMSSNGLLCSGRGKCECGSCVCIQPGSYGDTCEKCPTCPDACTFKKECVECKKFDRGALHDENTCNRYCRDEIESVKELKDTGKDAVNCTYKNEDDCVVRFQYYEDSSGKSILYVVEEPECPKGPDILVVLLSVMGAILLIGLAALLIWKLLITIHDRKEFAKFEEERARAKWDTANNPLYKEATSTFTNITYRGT
Nature of the assay: Radio-SDS-PAGE with integrin (negative control protein). In kind it is binding. To be noted: radiopeptide incubated with integrin αVβ3 (200 µg/mL) 30 min at 37 °C, radio-TLC scan. As for the experimental part:
as §1, §2, §3

Assay [3] has as its system HCT116 cells (PD-L1 positive). Description: Cellular uptake and internalization, HCT116. In kind it is cell-based, human. Conditions: HCT116, 1 × 10^6 cells/tube, 7.4 kBq, 37 °C, 1 h, n = 3. As for the experimental part:
Human colorectal cancer HCT116 (PD-L1 positive: 45.1 nTPM), human lung cancer HCC827 (PD-L1 positive: 27.1 nTPM), and […] C6 glioma cells (PD-L1 negative control) were obtained from ATCC (Atlanta, GA, USA). FBS, RPMI, and cell culture medium were obtained from Bovine and Biology (CDMX, MX). Cells were cultured in RPMI medium (5% CO2; 100 µg/mL penicillin, 15% fetal bovine serum, and 100 µg/mL streptomycin; 37 °C).
Cells diluted in phosphate-buffered saline (PBS) (pH 7.4) (1 × 10^6 cells/tube) received three different treatments: (a) [^99mTc]Tc-iPD-L1 (7.4 kBq) (n = 3), (b) and [^99mTc]Tc-WL12 (7.4 kBq) (n = 3), and (c) ^99mTcO4Na (7.4 kBq) (n = 3). Cells were incubated with each treatment at 37 °C for one hour. After incubation, tubes were measured in a NaI(Tl) detector (NML Inc., Houston, TX, USA) to establish the initial or first activity (100%). The tubes were spun at 500 g for 10 min, rinsed once with PBS, and spun once more. The liquid was removed, and the activity in the button was determined, indicating the percentage of cellular uptake (surface uptake) regarding the initial or first activity. Acetic acid/0.5 M NaCl was added, the tubes were centrifuged, and the activity was measured. The liquid was removed, and activity in button activity represented the percentage of activity internalized by cells relative to uptake activity (internalization fraction of surface uptake). […]

In assay [4] the test system is HCC827 lung cancer tumors. Nature of the assay: Biodistribution in mice bearing HCC827 tumors. In kind it is in vivo, mouse. To be noted: mean over 1, 3 and 24 h. As for the experimental part:
All animal procedures were performed following the Institutional Animal Care and Use Committee requirements under an approved protocol (No. 09-2018-2022) and the Ethical Regulations for the Handling of Laboratory Animals (NOM-062-ZOO-1999). Male Nu/Nu (CINVESTAV, I.PN., Mexico City, Mexico) mice, 6–8 weeks of age, were maintained in an aseptic barrier environment. Mice were inoculated by subcutaneous injection of 1 × 10^6 HCC827 cells/0.1 mL PBS into the upper back. Injection sites were monitored periodically for tumor progression. On day ten after tumor cell inoculation, animals were injected with 18.5 MBq (50 µL) of [^99mTc]Tc-iPD-L1 or 18.5 MBq (50 µL) of [^99mTc]Tc-WL12 by tail vein injection. The animals were sacrificed at 1, 3, and 24 h (n = 3). Kidneys, lungs, heart, liver, spleen, pancreas, small intestine, stomach, muscle, and blood and tumor samples were dissected. Radioactivity was determined in a sodium iodide detector. The results were stated as % injected dose/g.
After 24 h, the activity in tumors was 3.21 ± 0.45 %ID/g ([^99mTc]Tc-WL12) and 5.65 ± 0.98 %ID/g ([^99mTc]Tc-iPD-L1). […] This behavior is related to the higher lipophilicity of [^99mTc]Tc-iPD-L1 compared to [^99mTc]Tc-WL12.

T1 sequence (Q9NZQ7 19-290): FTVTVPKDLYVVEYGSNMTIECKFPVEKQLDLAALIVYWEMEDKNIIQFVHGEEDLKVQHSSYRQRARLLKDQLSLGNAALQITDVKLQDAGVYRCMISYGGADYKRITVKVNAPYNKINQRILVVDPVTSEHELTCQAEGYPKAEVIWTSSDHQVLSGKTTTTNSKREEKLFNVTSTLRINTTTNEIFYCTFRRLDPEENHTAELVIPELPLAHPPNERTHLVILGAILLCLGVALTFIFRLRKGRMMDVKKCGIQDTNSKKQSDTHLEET

As to `CCCC[C@H]1C(=O)N(C)[C@@H](CCCC)C(=O)N[C@@H](CCCNC(=O)c2ccc(NN)nc2)C(=O)N[C@H](C(=O)NCC(N)=O)CSCC(=O)N[C@@H](Cc2ccc(O)cc2)C(=O)N(C)[C@@H](C)C(=O)N[C@@H](CC(N)=O)C(=O)N2CCC[C@H]2C(=O)N[C@@H](Cc2c[nH]cn2)C(=O)N[C@@H](CC(C)C)C(=O)N2C[C@H](O)C[C@H]2C(=O)N[C@@H](Cc2c[nH]c3ccccc23)C(=O)N[C@@H](CO)C(=O)N[C@@H](Cc2cn(C)c3ccccc23)C(=O)N1C` [[^99mTc]Tc-WL12, metal not drawn], the “radioactivity detected at the distance associated with the PD-L1 protein” value in assay [1] was 14%. The “shift in radioactivity with integrin (negative control)” value in assay [2] was “no shift in radioactivity”. In assay [3], the “uptake and internalization compared to C6 cells (PD-L1 negative)” value was “significantly higher”. In assay [4], the “mean percentage of tumor uptake over time (two-way ANOVA)” value was determined as 6.617.
